Laboratory results reported in patent US20020137929A1, “1 - (3-heterocyclylphenyl) isothiourea, -isourea, -guanidine and -amidine herbicidal agents” (Intellectual Property Department, BASF Aktiengesellschaft, priority 1998, published 2002).

What was measured:
GALAP (Galium) [1] = assay: Postemergence herbicidal evaluation; format: in vivo, Galium aparine; conditions: postemergence
Method in brief: (§1)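 Each compound, dispersed in an acetone/water mix (50/50) carrying 0.5% TWEEN 20, is nozzle-sprayed at 40 psi on approximately two-week-old seedlings at about 0.0156–0.500 kg/ha. Plants are assessed 4–5 weeks afterward on a 0–9 scale relative to control; duplicate tests are averaged.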

[2] = system: CHEAL (Lambsquarters, Common); assay: Postemergence herbicidal evaluation; format: in vivo, Chenopodium album; conditions: postemergence
Method in brief: as §1

ECHCG (Barnyardgrass) = assay: Preemergence herbicidal evaluation; format: in vivo, Echinochloa crus-galli; conditions: rated 4-5 weeks after treatment
Method in brief: (§2)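 Test compound, dissolved in aqueous acetone, was sprayed over planted soil cups at an equivalent of about 0.0156 to 0.500 kg/ha; seeds had been mixed with potting soil. Greenhouse growth followed, with visual 0-9 scoring of injury at four to five weeks.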

[3] = system: TRZAWR (Wheat, Winter, cv Riband); assay: Preemergence herbicidal evaluation; format: in vivo, Triticum aestivum; conditions: rated 4-5 weeks after treatment
Method in brief: as §2

ZEAMX (Corn, Field) = assay: Postemergence herbicidal evaluation; format: in vivo, Zea mays; conditions: postemergence
Method in brief: as §1

SETVI (Foxtail, Green) = assay: Preemergence herbicidal evaluation; format: in vivo, Setaria viridis; conditions: rated 4-5 weeks after treatment
Method in brief: as §2

[4] = system: IPOHE (Morningglory, Ivyleaf); assay: Postemergence herbicidal evaluation; format: in vivo, Ipomoea hederacea; conditions: postemergence
Method in brief: as §1

ABUTH (Velvetleaf) = assay: Postemergence herbicidal evaluation; format: in vivo, Abutilon theophrasti; conditions: postemergence
Method in brief: as §1

[5] = system: SAGPY (Arrowhead (Pygmaea)); assay: Preemergence weed control under flooded paddy conditions; format: in vivo, Sagittaria pygmaea; conditions: rated 3-4 weeks after treatment
Method in brief: (§3)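 Greenhouse paddy assay. Acetone/water (50/50 v/v) solutions dosed into flood water, equivalent to about 0.0313 to 0.500 kg/ha active ingredient, over seeds planted 0.5 cm deep in silt loam. Score: 0-9 visual, based on stand, vigor, malformation, size and chlorosis, 3 to 4 weeks after treatment.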

GALAP (Galium) [6] = assay: Preemergence herbicidal evaluation; format: in vivo, Galium aparine; conditions: rated 4-5 weeks after treatment
Method in brief: as §2

CASOB (Sicklepod) [7] = assay: Postemergence herbicidal evaluation; format: in vivo, Cassia obtusifolia; conditions: postemergence
Method in brief: as §1

ORYSAT (Rice, Tebonnet) = assay: Preemergence herbicidal evaluation; format: in vivo, Oryza sativa, (L.) Tebonnet; conditions: rated 4-5 weeks after treatment
Method in brief: as §2

CASOB (Sicklepod) [8] = assay: Preemergence herbicidal evaluation; format: in vivo, Cassia obtusifolia; conditions: rated 4-5 weeks after treatment
Method in brief: as §2

[9] = system: IPOHE (Morningglory, Ivyleaf); assay: Preemergence herbicidal evaluation; format: in vivo, Ipomoea hederacea; conditions: rated 4-5 weeks after treatment
Method in brief: as §2

[10] = system: TRZAWR (Wheat, Winter, cv Riband); assay: Postemergence herbicidal evaluation; format: in vivo, Triticum aestivum; conditions: postemergence
Method in brief: as §1

MOOVA (Monochoria) = assay: Preemergence weed control under flooded paddy conditions; format: in vivo, Monochoria vaginalis; conditions: rated 3-4 weeks after treatment
Method in brief: as §3

CCOC(=O)CN1C(=O)C(Cc2ccccc2OCC(=O)O)S/C1=N/c1cc(-n2c(=O)cc(C(F)(F)F)n(C)c2=O)c(F)cc1Cl (stereo not shown) [Compound 113, 5-[o-(Carboxymethoxy)benzyl]-2-{{2-chloro-5-[3,6-dihydro-3-methyl-2,6-dioxo-4-(trifluoromethyl)-1(2H)-pyrimidinyl]-4-fluorophenyl}imino}-4-oxo-3-thiazolidineacetic acid, 3-ethyl ester]
7.0: Herbicidal rating CHEAL ([2]; rate 0.0630 kg/ha) | Herbicidal rating IPOHE ([4]; rate 0.0158 kg/ha)
1.0: Herbicidal rating GALAP (GALAP (Galium) [1]; rate 0.0158 kg/ha) | Preemergence herbicidal rating SETVI (SETVI (Foxtail, Green); rate 0.2500 kg/ha) | Preemergence herbicidal rating GALAP (GALAP (Galium) [6]; rate 0.1250 kg/ha) | Preemergence herbicidal rating IPOHE ([9]; rate 0.2500 kg/ha)
4.0: Herbicidal rating CHEAL ([2]; rate 0.0315 kg/ha) | Herbicidal rating ZEAMX (ZEAMX (Corn, Field); rate 0.0158 kg/ha) | SAGPY herbicidal effect rating ([5]; 0.0313 kg/ha) | Herbicidal rating CASOB (CASOB (Sicklepod) [7]; rate 0.0630 kg/ha)
3.0: Preemergence herbicidal rating GALAP (GALAP (Galium) [6]; rate 0.2500 kg/ha) | Herbicidal rating TRZAWR ([10]; rate 0.0630 kg/ha)
0.0: Herbicidal rating GALAP (GALAP (Galium) [1]; rate 0.0315 kg/ha) | Preemergence herbicidal rating ECHCG (ECHCG (Barnyardgrass); rate 0.0156 kg/ha) | Preemergence herbicidal rating ECHCG (ECHCG (Barnyardgrass); rate 0.0313 kg/ha) | Preemergence herbicidal rating ECHCG (ECHCG (Barnyardgrass); rate 0.0625 kg/ha) | Preemergence herbicidal rating ECHCG (ECHCG (Barnyardgrass); rate 0.1250 kg/ha) | Preemergence herbicidal rating ECHCG (ECHCG (Barnyardgrass); rate 0.2500 kg/ha) | Preemergence herbicidal rating TRZAWR ([3]; rate 0.0156 kg/ha) | Preemergence herbicidal rating TRZAWR ([3]; rate 0.0313 kg/ha) | Preemergence herbicidal rating TRZAWR ([3]; rate 0.0625 kg/ha) | Preemergence herbicidal rating TRZAWR ([3]; rate 0.1250 kg/ha) | Preemergence herbicidal rating TRZAWR ([3]; rate 0.2500 kg/ha) | Preemergence herbicidal rating SETVI (SETVI (Foxtail, Green); rate 0.0156 kg/ha) | Preemergence herbicidal rating SETVI (SETVI (Foxtail, Green); rate 0.0313 kg/ha) | Preemergence herbicidal rating SETVI (SETVI (Foxtail, Green); rate 0.0625 kg/ha) | Preemergence herbicidal rating SETVI (SETVI (Foxtail, Green); rate 0.1250 kg/ha) | Preemergence herbicidal rating GALAP (GALAP (Galium) [6]; rate 0.0156 kg/ha) | Preemergence herbicidal rating GALAP (GALAP (Galium) [6]; rate 0.0313 kg/ha) | Preemergence herbicidal rating GALAP (GALAP (Galium) [6]; rate 0.0625 kg/ha) | Herbicidal rating CASOB (CASOB (Sicklepod) [7]; rate 0.0158 kg/ha) | Herbicidal rating CASOB (CASOB (Sicklepod) [7]; rate 0.0315 kg/ha) | Preemergence herbicidal rating ORYSAT (ORYSAT (Rice, Tebonnet); rate 0.0156 kg/ha) | Preemergence herbicidal rating ORYSAT (ORYSAT (Rice, Tebonnet); rate 0.0313 kg/ha) | Preemergence herbicidal rating ORYSAT (ORYSAT (Rice, Tebonnet); rate 0.0625 kg/ha) | Preemergence herbicidal rating ORYSAT (ORYSAT (Rice, Tebonnet); rate 0.1250 kg/ha) | Preemergence herbicidal rating ORYSAT (ORYSAT (Rice, Tebonnet); rate 0.2500 kg/ha) | Preemergence herbicidal rating CASOB (CASOB (Sicklepod) [8]; rate 0.0156 kg/ha) | Preemergence herbicidal rating CASOB (CASOB (Sicklepod) [8]; rate 0.0313 kg/ha) | Preemergence herbicidal rating CASOB (CASOB (Sicklepod) [8]; rate 0.0625 kg/ha) | Preemergence herbicidal rating CASOB (CASOB (Sicklepod) [8]; rate 0.1250 kg/ha) | Preemergence herbicidal rating CASOB (CASOB (Sicklepod) [8]; rate 0.2500 kg/ha) | Preemergence herbicidal rating IPOHE ([9]; rate 0.0156 kg/ha) | Preemergence herbicidal rating IPOHE ([9]; rate 0.0313 kg/ha) | Preemergence herbicidal rating IPOHE ([9]; rate 0.0625 kg/ha) | Preemergence herbicidal rating IPOHE ([9]; rate 0.1250 kg/ha)
2.0: Herbicidal rating GALAP (GALAP (Galium) [1]; rate 0.0630 kg/ha) | Herbicidal rating TRZAWR ([10]; rate 0.0158 kg/ha) | Herbicidal rating TRZAWR ([10]; rate 0.0315 kg/ha)
9.0: Herbicidal rating IPOHE ([4]; rate 0.0315 kg/ha) | Herbicidal rating IPOHE ([4]; rate 0.0630 kg/ha) | Herbicidal rating ABUTH (ABUTH (Velvetleaf); rate 0.0158 kg/ha) | Herbicidal rating ABUTH (ABUTH (Velvetleaf); rate 0.0315 kg/ha) | Herbicidal rating ABUTH (ABUTH (Velvetleaf); rate 0.0630 kg/ha) | SAGPY herbicidal effect rating ([5]; 0.1250 kg/ha) | SAGPY herbicidal effect rating ([5]; 0.2500 kg/ha) | MOOVA herbicidal effect rating (MOOVA (Monochoria); 0.0313 kg/ha) | MOOVA herbicidal effect rating (MOOVA (Monochoria); 0.0625 kg/ha) | MOOVA herbicidal effect rating (MOOVA (Monochoria); 0.1250 kg/ha) | MOOVA herbicidal effect rating (MOOVA (Monochoria); 0.2500 kg/ha)
4.5: Herbicidal rating ZEAMX (ZEAMX (Corn, Field); rate 0.0315 kg/ha) | Herbicidal rating ZEAMX (ZEAMX (Corn, Field); rate 0.0630 kg/ha)
5.0: Herbicidal rating CHEAL ([2]; rate 0.0158 kg/ha)
6.0: SAGPY herbicidal effect rating ([5]; 0.0625 kg/ha)
